What was measured:
[1] = system: Aβ42; assay: Aβ42 cellular assay: inhibition of Aβ42 production in H4 neuroglioma cells stably expressing human APP695, electrochemiluminescence (Meso Scale Discovery) on supernatant; type: cell-based; details: 22 hours incubation, tested range 30 µM to 0.1 nM
Description: (§1) Cells were plated out to near confluency. The compounds to be tested were received as 10 mM stocks in 100% DMSO. A dilution series was initially generated in 100% DMSO and then diluted 200-fold in cell culture media such that the tested concentration range was 30 µM to 0.1 nM and the final DMSO concentration was 0.5%. The diluted compounds were incubated with the cells for 22 hours in an incubator at 37°C and 5% CO2. Aβ42 as well as Aβ total levels were then measured post-incubation from the supernatant of the cells. Aβ42 levels were determined using a specific electrochemiluminescence assay provided by Meso Scale Discovery (Catalog # L21CA-1) according to the manufacturer's protocol. Aβ total levels were likewise determined using a specific electrochemiluminescence assay provided by Meso Scale Discovery (Catalog # L21ZA-1) according to the manufacturer's protocol.
(§2) In order to absolutely define the described compounds as modulators of y-Secretase as opposed to simply inhibitors of γ-Secretase, measurements of not only Aβ42 but also Aβ total are performed.

[2] = system: Aβ total; assay: Aβ total cellular assay: inhibition of Aβ total production in H4 neuroglioma cells stably expressing human APP695, electrochemiluminescence (Meso Scale Discovery) on supernatant; used for the ratio Aβ total IC50 / Aβ42 IC50; type: cell-based; details: higher ratio = more specific inhibition of Aβ42
Description: as §1, §2

Structure (SMILES) | IC50 [1] [nM] | Ratio Aß(total)/Aß42 [2]
COc1cc(Nc2ncc3c(n2)N(C)C2(CCOCC2)C(=O)N3C)ccc1-c1cnc(C)o1 [Example 1] | 120 | > 244
COc1cc(Nc2ncc3c(n2)N(C)C2(CCOCC2)C(=O)N3C)ccc1-n1cnc(C)c1 [Example 2] | 190 | 89
Cc1ncc(-c2ccc(Nc3ncc4c(n3)N(C)C3(CCOCC3)C(=O)N4C)cn2)o1 [Example 3] | 5400 | >6
COc1cc(Nc2nc(C)c3c(n2)N(C)C2(CCOCC2)C(=O)N3C)ccc1-n1cnc(C)c1 [Example 4] | 290 | 101
Cc1ncc(-c2ccc(Nc3nc(C)c4c(n3)N(C)C3(CCOCC3)C(=O)N4C)cn2)o1 [Example 5] | 3200 | >9
COc1cc(Nc2ncc3c(n2)N(C)C2(CCOC2)C(=O)N3C)ccc1-n1cnc(C)c1 (stereo not shown) [Example 6] | 220 | > 136
COc1cc(Nc2ncc3c(n2)N(C)C2(CCOC2)C(=O)N3C)ccc1-c1cnc(C)o1 (stereo not shown) [Example 7] | 95 | > 315
Cc1ncc(-c2ccc(Nc3ncc4c(n3)N(C)C3(CCOC3)C(=O)N4C)cn2)o1 (stereo not shown) [Example 8] | 3000 | >10
COc1cc(Nc2ncc3c(n2)N(C)C2(CCOCC2)C(=O)N3)ccc1-n1cnc(C)c1 [Example 9] | 300 | > 101
COc1cc(Nc2ncc3c(n2)N(C)C2(CCOC2)C(=O)N3)ccc1-n1cnc(C)c1 (stereo not shown) [Example 10] | 620 | 46
COCCN1C(=O)C2(CCOCC2)N(C)c2nc(Nc3ccc(-n4cnc(C)c4)c(OC)c3)ncc21 [Example 11] | 310 | 26
COCCN1C(=O)C2(CCOCC2)N(C)c2nc(Nc3ccc(-c4ccnc(C)c4)cc3)ncc21 [Example 12] | 1900 | 11
COCCN1C(=O)C2(CCOCC2)N(C)c2nc(Nc3ccc(-n4cnc(C)n4)c(OC)c3)ncc21 [Example 13] | 2200 | >13
COCCN1C(=O)C2(CCOC2)N(C)c2nc(Nc3ccc(-c4ccnc(C)c4)cc3)ncc21 (stereo not shown) [Example 14] | 1400 | > 27
COCCN1C(=O)C2(CCOC2)N(C)c2nc(Nc3ccc(-n4cnc(C)n4)c(OC)c3)ncc21 (stereo not shown) [Example 15] | 2100 | >15
COCCN1C(=O)C2(CCOC2)N(C)c2nc(Nc3ccc(-n4cnc(C)c4)c(OC)c3)ncc21 (stereo not shown) [Example 16] | 180 | 88
CCCN1C(=O)C2(CCOCC2)N(C)c2nc(Nc3ccc(-n4cnc(C)c4)c(OC)c3)ncc21 [Example 17] | 94 | 65
Cc1cn(-c2ccc(Nc3ncc4c(n3)N(C)C3(CCOC3)C(=O)N4C)cc2C#N)cn1 (stereo not shown) [Example 18] | 300 | 145
Cc1cn(-c2ccc(Nc3ncc4c(n3)NC3(CCOC3)C(=O)N4C)cc2C#N)cn1 (stereo not shown) [Example 19] | 280 | > 257

Structure (SMILES) | IC50 [1] [nM] | Ratio Aß(total)/Aß42 [2]
COc1cc(Nc2ncc3c(n2)NC2(CCOC2)C(=O)N3C)ccc1-n1cnc(C)c1 (stereo not shown) [Example 20] | 790 | > 90
COc1cc(Nc2ncc3c(n2)N(C)C2(CCOC2)C(=O)N3C2COC2)ccc1-n1cnc(C)c1 (stereo not shown) [Example 21] | 220 | 114
COc1cc(Nc2ncc3c(n2)NC2(CCOC2)C(=O)N3CC2CCOCC2)ccc1-n1cnc(C)c1 (stereo not shown) [Example 22] | 3300 | >9
COc1cc(Nc2ncc3c(n2)N(C)C2(CCOC2)C(=O)N3C(C)C)ccc1-n1cnc(C)c1 (stereo not shown) [Example 23] | 39 | 599
COc1cc(Nc2ncc3c(n2)N(CC2CCOCC2)C2(CCOC2)C(=O)N3CC2CCOCC2)ccc1-n1cnc(C)c1 (stereo not shown) [Example 24] | 3000 | >10
COc1cc(Nc2ncc3c(n2)N(C)C2(COCCOC2)C(=O)N3)ccc1-n1cnc(C)c1 [Example 25] | 290 | 91
COc1cc(Nc2ncc3c(n2)N(C)C2(CCOC2)C(=O)N3CC2CCOCC2)ccc1-n1cnc(C)c1 (stereo not shown) [Example 26] | 350 | 46
COc1cc(Nc2ncc3c(n2)N(C)C2(COCCOC2)C(=O)N3C)ccc1-n1cnc(C)c1 [Example 27] | 270 | > 112
COc1cc(Nc2ncc3c(n2)NC2(CCOC2)C(=O)N3C2COC2)ccc1-n1cnc(C)c1 (stereo not shown) [Example 28] | 10500 | >3
COc1cc(Nc2ncc3c(n2)NC2(CCOC2)C(=O)N3CCC(C)C)ccc1-n1cnc(C)c1 (stereo not shown) [Example 29] | 270 | 39
COCCN1c2nc(Nc3ccc(-n4cnc(C)c4)c(OC)c3)nc(CC(C)C)c2N(C)C(=O)C12CCOC2 (stereo not shown) [Example 30] | 100 | 96
COCCN1c2nc(Nc3ccc(-c4cnc(C)o4)c(OC)c3)nc(CC(C)C)c2N(C)C(=O)C12CCOC2 (stereo not shown) [Example 31] | 180 | 47
COc1cc(Nc2nc(CC(C)C)c3c(n2)N(C)C2(CCOC2)C(=O)N3C)ccc1-n1cnc(C)c1 (stereo not shown) [Example 32] | 79 | 124
COc1cc(Nc2nc(CC(C)C)c3c(n2)NC2(CCOC2)C(=O)N3)ccc1-n1cnc(C)c1 (stereo not shown) [Example 33] | 140 | 124
CCc1nc(Nc2ccc(-n3cnc(C)c3)c(OC)c2)nc2c1N(C)C(=O)C1(CCOC1)N2C (stereo not shown) [Example 34] | 73 | 115
CCc1nc(Nc2ccc(-n3cnc(C)c3)c(C#N)c2)nc2c1N(C)C(=O)C1(CCOC1)N2C (stereo not shown) [Example 35] | 76 | 180
COc1cc(Nc2ncc3c(n2)N(C)C2(CCc4ccccc4C2)C(=O)N3C)ccc1-n1cnc(C)c1 (stereo not shown) [Example 36] | 69 | 179
Cc1ncc(-c2ccc(Nc3ncc4c(n3)N(C)C3(CCc5ccccc5C3)C(=O)N4C)cn2)o1 (stereo not shown) [Example 37] | 940 | 29
COc1cc(Nc2ncc3c(n2)N(C)C2(CCOC2)C(=O)N3c2ccc(F)cc2)ccc1-n1cnc(C)c1 (stereo not shown) [Example 37a] | 60 | 307

Structure (SMILES) | IC50 [1] [nM] | Ratio Aß(total)/Aß42 [2]
COc1cc(Nc2ncc3c(n2)N(C)C2(CCOCC2)C(=O)N3C2CC2)ccc1-n1cnc(C)c1 [Example 37b] | 172 | 47
COc1cc(Nc2ncc3c(n2)N(C)C2(CCOCC2)C(=O)N3c2cc(F)cc(F)c2)ccc1-n1cnc(C)c1 [Example 37c] | 116 | 75
COc1cc(Nc2nc3c(c(C(F)(F)F)n2)N(C)C(=O)C2(CCOCC2)N3C)ccc1-n1cnc(C)c1 [Example 37d] | 815 | >36
COc1cc(Nc2ncc3c(n2)N(C)C2(CCOC2)C(=O)N3CC(F)(F)F)ccc1-n1cnc(C)c1 (stereo not shown) [Example 37e] | 86 | 82
COc1cc(Nc2ncc3c(n2)N(C)C2(CCOCC2)C(=O)N3c2ccc(F)cc2)ccc1-n1cnc(C)c1 [Example 37f] | 145 | 55
COc1cc(Nc2ncc3c(n2)N(C)C2(CCOC2)C(=O)N3C2CC2)ccc1-n1cnc(C)c1 (stereo not shown) [Example 37g] | 196 | 58
COc1cc(Nc2ncc3c(n2)N(C)C2(CCOC2)C(=O)N3CC(F)F)ccc1-n1cnc(C)c1 (stereo not shown) [Example 37h] | 123 | 85
CCc1nc(Nc2cnc(-n3cnc(C)c3)c(OC)c2)nc2c1N(C)C(=O)C1(CC1)N2C [Example 37i] | 150 | 54
COc1cc(Nc2ncc3c(n2)N(C)C2(CCOCC2)C(=O)N3Cc2ccc(F)cc2F)ccc1-n1cnc(C)c1 [Example 37j] | 73 | 57
COc1cc(Nc2ncc3c(n2)N(C)C2(CCOC2)C(=O)N3C(C)c2ccccn2)ccc1-n1cnc(C)c1 (stereo not shown) [Example 37k] | 120 | 88
COc1cc(Nc2ncc3c(n2)N(C2CCCC2)C2(CC2)C(=O)N3C)ccc1-n1cnc(C)c1 [Example 38] | 410 | >15
COc1cc(Nc2ncc3c(n2)N(C)C2(CCCCOC2)C(=O)N3C)ccc1-n1cnc(C)c1 (stereo not shown) [Example 39] | 78 | 91
COc1cc(Nc2nc3c(c(C(C)(C)O)n2)N(C)C(=O)C2(CCOC2)N3C)ccc1-c1cnc(C)o1 (stereo not shown) [Example 40] | 485 | > 62
COc1cc(Nc2ncc3c(n2)N(C)C2(COC2)C(=O)N3C)ccc1-n1cnc(C)c1 [Example 41] | 1220 | > 25
COc1cc(Nc2ncc3c(n2)N(C)C2(CCCOCC2)C(=O)N3C)ccc1-n1cnc(C)c1 (stereo not shown) [Example 42] | 206 | 51
COc1cc(Nc2ncc3c(n2)N(C)C2(CCC2)C(=O)N3C)ccc1-n1cnc(C)c1 [Example 43] | 123 | 237
COc1cc(Nc2ncc3c(n2)N(C)C2(CC2)C(=O)N3CC(F)(F)F)ccc1-n1cnc(C)c1 [Example 44] | 85 | 50
COc1cc(Nc2ncc3c(n2)N(C)C2(CCC2)C(=O)N3CC(F)(F)F)ccc1-c1cnc(C)o1 [Example 45] | 58 | > 517
